Where a name gives a salt, the structure may show the parent alone.
Tests used:
[1] = test system: HCT-116 cell line; assay: Inhibition of cell growth, MTT tetrazolium salt assay; type: cell-based; settings: for IC50: Homo sapiens, HCT-116, 120 h, MTT, three to five days
Method: Inhibition of cell growth was measured using the tetrazolium salt assay, which is based on the ability of viable cells to reduce 3-(4,5-dimethylthiazol-2-yl)-2,5-[2H]-diphenyltetrazolium bromide (MTT) to formazan (Mossman, Journal of Immunological Methods, 65, (1983), pp. 55-58). The water-insoluble purple formazan product was then detected spectrophotometrically. The HCT-116 cell line was used as a representative cancer cell line and grown in 96-well plates. Cells were plated in McCoy's 5A Medium at a volume of 135 μl/well. Plates were incubated for four hours before addition of inhibitor compounds. Different concentrations of inhibitor compounds were added in 0.5% (v/v) dimethylsulfoxide (15 μL/well), and cells were incubated at 37° C. (5% CO2) for three to five days. At the end of the incubation, MTT was added to a final concentration of 0.2 mg/mL, and cells were incubated for 4 hours more at 37° C. After centrifugation of the plates and removal of medium, the absorbance of the formazan (solubilized in dimethylsulfoxide) was measured at 540 nm. The concentration of inhibitor compound causing 50% (IC50) or 90% ([…]) inhibition of growth was determined from the linear portion of a semi-log plot of inhibitor concentration versus percent inhibition. All results were compared to control cells treated only with 0.5% (v/v) dimethylsulfoxide.

[2] = biological target: T1, human CDK4/cyclin D3 (Homo sapiens, UniProt P11802); assay: Inhibition of CDK4/cyclin D retinoblastoma kinase activity (Ki; % inhibition); type: biochemical; settings: for Ki: apparent Ki, CDK4/cyclin D3, Rb substrate
T1 construct: made in house; host or cells: insect cells co-infected with baculovirus vectors
Method: (§1) Cyclin-dependent kinase activity was measured by quantifying the enzyme-catalyzed, time-dependent incorporation of radioactive phosphate from [^32P]ATP or [^33P]ATP into a protein substrate. Unless noted otherwise, assays were performed in 96-well plates in a total volume of 50 μL, in the presence of 10 mM HEPES (N-[2-hydroxyethyl]piperazine-N′-[2-ethanesulfonic acid]) (pH 7.4), 10 mM MgCl2, 25 μM adenosine triphosphate (ATP), 1 mg/mL ovalbumin, 5 μg/mL leupeptin, 1 mM dithiothreitol, 10 mM β-glycerophosphate, 0.1 mM sodium vanadate, 1 mM sodium fluoride, 2.5 mM ethylene glycol-bis(β-aminoethyl ether)-N,N,N′N′-tetraacetic acid (EGTA), 2% (v/v) dimethylsulfoxide, and 0.03-0.4 μCi [^32/33P]ATP per reaction. Reactions were initiated with enzyme, incubated at 30° C., and terminated after 20 minutes by the addition of ethylenediaminetetraacetic acid (EDTA) to 250 mM. The phosphorylated substrate was then captured on a nitrocellulose or phosphocellulose membrane using a 96-well filtration manifold, and unincorporated radioactivity was removed by repeated washing with 0.85% phosphoric acid. Radioactivity was quantified by exposing the dried membranes to a phosphorimager.
(§2) Compounds from combinatorial libraries were screened from 96-well plates for % inhibition of CDK activity at 30 nM theoretical compound concentration. Inhibition was measured relative to control wells that contained all reaction components including 2% (v/v) DMSO but no compound, after subtraction of background radioactivity measured in the absence of enzyme. Apparent Ki values of discrete compounds were measured by assaying enzyme activity in the presence of different inhibitor compound concentrations and subtracting the background radioactivity measured in the absence of enzyme. The kinetic parameters (kcat, Km for ATP) were measured for each enzyme under the usual assay conditions by determining the dependence of initial rates on ATP concentration. Inhibition data were fit to an equation for competitive inhibition using Kaleidagraph (Synergy Software), or were fit to an equation for competitive tight-binding inhibition using the software KineTic (BioKin, Ltd.).
A complex of human CDK4 and genetically truncated (1-264) cyclin D3 was purified using traditional biochemical chromatographic techniques from insect cells that had been co-infected with the corresponding baculovirus expression vectors (see e.g., Meijer and Kim, “Chemical Inhibitors of Cyclin-Dependent Kinases,” Methods in Enzymol., 283 (1997), pp. 113-128.). The enzyme complex (5 nM) was assayed with 0.3-0.5 μg of purified recombinant retinoblastoma protein fragment (Rb) as a substrate. The engineered Rb fragment (residues 386-928 of the native retinoblastoma protein; 62.3 kDa) contains the majority of the phosphorylation sites found in the native 106-kDa protein, as well as a tag of six histidine residues for ease of purification. Phosphorylated Rb substrate was captured by microfiltration on a nitrocellulose membrane and quantified using a phosphorimager as described above. For measurement of tight-binding inhibitors, the assay duration was extended to 60 minutes, during which the time-dependence of product formation was linear and initial rate conditions were met.

[3] = biological target: T2, CDK2/cyclin A (Homo sapiens, UniProt P24941); assay: Inhibition of CDK2/cyclin A retinoblastoma kinase activity (Ki; % inhibition); type: biochemical; settings: for Ki: apparent Ki, CDK2/cyclin A, Rb substrate
T2 construct: made in house; host or cells: CDK2: insect cells (baculovirus); cyclin A: E. coli
Method: as §1, §2
CDK2 was purified using published methodology (Rosenblatt et al., “Purification and Crystallization of Human Cyclin-dependent Kinase 2,” J. Mol. Biol., 230, 1993, pp. 1317-1319) from insect cells that had been infected with a baculovirus expression vector. […] A complex of CDK2 and proteolyzed cyclin A was prepared and purified by gel filtration. The substrate for this assay was the same Rb substrate fragment used for the CDK4 assays, and the methodology of the CDK2/delta cyclin A and the CDK4/delta cyclin D3 assays was essentially the same, except that CDK2 was present at 10 nM or 19 nM. The duration of the assay was 60 or 75 minutes, during which the time-dependence of product formation was linear and initial rate conditions were met.

[4] = HCT-116 cells, 0.25 μM compound

T1 sequence (P11802 whole entry): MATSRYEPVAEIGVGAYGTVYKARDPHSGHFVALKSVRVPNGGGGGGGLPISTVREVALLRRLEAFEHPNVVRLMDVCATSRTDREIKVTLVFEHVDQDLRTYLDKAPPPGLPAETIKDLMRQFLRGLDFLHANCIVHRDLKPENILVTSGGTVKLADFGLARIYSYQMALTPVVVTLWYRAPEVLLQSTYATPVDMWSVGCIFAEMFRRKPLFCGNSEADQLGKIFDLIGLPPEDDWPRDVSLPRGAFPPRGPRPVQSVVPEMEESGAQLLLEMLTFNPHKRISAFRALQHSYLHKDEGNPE
T1 sequence (P30281 1-264 partner limits assumed): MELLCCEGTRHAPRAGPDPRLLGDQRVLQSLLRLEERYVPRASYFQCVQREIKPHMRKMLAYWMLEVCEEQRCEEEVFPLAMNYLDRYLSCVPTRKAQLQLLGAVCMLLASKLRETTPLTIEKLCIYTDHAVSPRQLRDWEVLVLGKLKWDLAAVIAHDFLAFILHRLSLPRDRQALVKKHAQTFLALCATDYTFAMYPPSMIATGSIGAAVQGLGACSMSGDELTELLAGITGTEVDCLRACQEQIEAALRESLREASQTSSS

SMILES | HCT-116 % Inhibition at 0.25 μM ([1]; HCT-116, at 0.25 μM) [%] | CDK4 % Inhibition at 0.03 μM ([2]; at 0.03 μM) [%] | CDK2 % Inhibition at 0.03 μM ([3]; at 0.03 μM) [%] | HCT-116 % Inhibition at 0.1 μM ([1]; HCT-116 cells, 0.1 μM compound) [%] | HCT-116 % Inhibition at 0.25 μM [1, 4] [%] | CDK4 % Inhibition at 0.03 μM ([2]; 0.03 μM compound) [%] | CDK2 % Inhibition at 0.03 μM ([3]; 0.03 μM compound) [%] | Ki [2] [nM] | Ki [3] [nM] | also measured
CC(C)c1ccccc1NC(=O)c1ccc(Nc2nc(N)c(C(=O)c3c(F)cccc3F)s2)cc1 [Example G51] | 89 | −1 | 9 | – | – | – | – | – | – | –
Nc1nc(Nc2ccc(C(=O)Nc3ccc(S(N)(=O)=O)cc3)cc2)sc1C(=O)c1c(F)cccc1F [Example G82] | 48 | 15 | 24 | – | – | – | – | – | – | –
CCN(CC)CCN1CCN(C(=O)c2ccc(Nc3nc(N)c(C(=O)c4c(F)cccc4F)s3)cc2)CC1 [Example G374] | – | – | – | 21 | 41 | 13 | −10 | – | – | –
Nc1nc(Nc2ccc(C(=O)NCC3COc4ccccc4O3)cc2)sc1C(=O)c1c(F)cccc1F (stereo not shown) [Example G367] | – | – | – | 22 | 71 | 15 | 38 | – | – | –
CCCN(CCc1ccccn1)C(=O)c1ccc(Nc2nc(N)c(C(=O)c3c(F)cccc3F)s2)cc1 [Example G322] | – | – | – | 13 | 50 | 4 | −12 | – | – | –
Nc1nc(Nc2ccc(C(=O)N3CCC(Cc4ccccc4)CC3)cc2)sc1C(=O)c1c(F)cccc1F [Example G194] | 49 | 19 | 1 | – | – | – | – | – | – | HCT-116 % Inhibition at 0.1 μM ([1]; HCT-116, at 0.1 μM): 20%
Nc1nc(Nc2ccc(C(=O)NCc3nccs3)cc2)sc1C(=O)c1c(F)cccc1F [Example A49, 4-[4-Amino-5-(2,6-difluoro-benzoyl)-thiazol-2-ylamino]-N-(thiazol-2-yl-methyl)-benzamide Hydrochloride] | – | – | – | – | – | – | – | 11 | 260 | IC50 [1]: 320 nM
CC(C)CNC(=O)c1ccc(Nc2nc(N)c(C(=O)c3c(F)cccc3F)s2)cc1 [Example G126] | 53 | 7 | 3 | – | – | – | – | – | – | HCT-116 % Inhibition at 0.1 μM ([1]; HCT-116, at 0.1 μM): 0%
Nc1nc(Nc2ccc(C(=O)NCc3ccccc3C(F)(F)F)cc2)sc1C(=O)c1c(F)cccc1F [Example G269] | – | – | – | 19 | 65 | 2 | 6 | – | – | –
COc1ccccc1CCNC(=O)c1ccc(Nc2nc(N)c(C(=O)c3c(F)cccc3F)s2)cc1 [Example G185] | 49 | 20 | 7 | – | – | – | – | – | – | HCT-116 % Inhibition at 0.1 μM ([1]; HCT-116, at 0.1 μM): 10%
Nc1nc(Nc2ccc(C(=O)NCCc3ccncc3)cc2)sc1C(=O)c1c(F)cccc1F [Example A29, 4-[4-Amino-5-(2,6-difluoro-benzoyl)-thiazol-2-ylamino]-N-(2-pyridin-4-yl-ethyl)-benzamide] | – | – | – | – | – | – | – | 26 | 52 | IC50 [1]: 220 nM
Cn1ccnc1CNC(=O)c1ccc(Nc2nc(N)c(C(=O)c3c(F)cccc3F)s2)cc1 [Example A50, 4-[4-Amino-5-(2,6-difluoro-benzoyl)-thiazol-2-ylamino]-N-(1-methyl-1H-imidazol-2-ylmethyl)-benzamide Hydrochloride Salt] | – | – | – | – | – | – | – | 15 | 20 | IC50 [1]: 170 nM
Nc1nc(Nc2ccc(C(=O)NC(CO)c3ccccc3)cc2)sc1C(=O)c1c(F)cccc1F (stereo not shown) [Example G160] | – | 6 | 24 | – | – | – | – | – | – | HCT-116 % Inhibition at 0.1 μM ([1]; HCT-116, at 0.1 μM): 0%; HCT-116 % Inhibition at 0.25 μM ([1]; HCT-116, at 0.25 μM, 0.25 µM): 87%
Nc1nc(Nc2ccc(C(=O)Nc3ccc(C(F)(F)F)cc3)cc2)sc1C(=O)c1c(F)cccc1F [Example G368] | – | – | – | 25 | 50 | −3 | 3 | – | – | –
Nc1nc(Nc2ccc(C(=O)Nc3cccc(-c4cnco4)c3)cc2)sc1C(=O)c1c(F)cccc1F [Example G153] | 66 | 15 | 18 | – | – | – | – | – | – | HCT-116 % Inhibition at 0.1 μM ([1]; HCT-116, at 0.1 μM): 0%
Nc1nc(Nc2ccc(C(=O)Nc3ccccc3CCO)cc2)sc1C(=O)c1c(F)cccc1F [Example G207] | – | – | – | 15 | 66 | 15 | 15 | – | – | –
CN(C)CCNC(=O)c1ccc(Nc2nc(N)c(C(=O)C34CC5CC(CC(C5)C3)C4)s2)cc1 [Example A58, 4-[5-(1-Adamantan-1-yl-methanoyl)-4-amino-thiazol-2-ylamino]-N-(2-dimethylamino-ethyl)-benzamide] | – | – | – | – | – | – | – | 1000 | 3400 | –
Nc1nc(Nc2ccc(C(=O)NCCOCCO)cc2)sc1C(=O)c1c(Cl)cccc1Cl [Example B5, 4-[4-Amino-5-(2,6-dichloro-benzoyl)-thiazol-2-ylamino]-N-[2-(2-hydroxy-ethoxy)-ethyl]-benzamide] | – | – | – | – | – | – | – | 59 | 150 | –
Nc1nc(Nc2ccc(C(=O)Nc3cccnc3)cc2)sc1C(=O)c1c(F)cccc1F [Example A27, 4-[4-Amino-5-(2,6-difluoro-benzoyl)-thiazol-2-ylamino]-N-(pyridin-3-yl)-benzamide] | – | – | – | – | – | – | – | 41 | 66 | –
CN(C)CCN1C(=O)c2ccc(Nc3nc(N)c(C(=O)c4c(F)cccc4F)s3)cc2C1=O [E, 5-[4-Amino-5-(2,6-difluoro-benzoyl)-thiazol-2-ylamino]-2-(2-dimethylamino-ethyl)-isoindole-1,3-dione] | – | – | – | – | – | – | – | 240 | 400 | –
